Values belong to the molecule of their own block, whether it stands above or below them.
Assays:
BACE1 [1] = target: T1, BACE1 (Homo sapiens, UniProt P56817); assay: In Vitro Enzymatic BACE FRET (Fluorescence Resonance Energy Transfer) Assay; assay type: biochemical; conditions: read-out: BACE1 FRET assay
Summary of the method: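 Acetate buffer at pH 4.2 with 10% DMSO and 100 uM genapol hosts the enzymatic reaction, initiated by 50 nM FRET substrate and allowed to proceed one hour. Tris quench to neutral pH precedes the fluorescence measurement.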

BACE1 [2] = target: T1, BACE1; assay: In Vitro BACE Cell-based Assay (HEK cell assay): Aβ40 in conditioned medium of cells stably expressing Amyloid Precursor Protein, sandwich ELISA; conditions: read-out: HEK cell assay
Summary of the method: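 HEK cells stably expressing APP were treated 24 h with compound in 10-point dose response starting at 100 or 10 μM (0.1% DMSO). Secreted Aβ40 quantified by sandwich ELISA (pAb40 capture, biotinylated 6E10 detection, europium time-resolved fluorescence), with IC50 derived from percent inhibition versus concentration.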

[3] = Table II, Aβ40, 24 h incubation
[4] = in vitro BACE FRET enzyme assay, IC50 class symbols
[5] = HEK cell-based assay, Aβ40 in conditioned medium, IC50 class symbols

T1 sequence (P56817 46-501, species assumed): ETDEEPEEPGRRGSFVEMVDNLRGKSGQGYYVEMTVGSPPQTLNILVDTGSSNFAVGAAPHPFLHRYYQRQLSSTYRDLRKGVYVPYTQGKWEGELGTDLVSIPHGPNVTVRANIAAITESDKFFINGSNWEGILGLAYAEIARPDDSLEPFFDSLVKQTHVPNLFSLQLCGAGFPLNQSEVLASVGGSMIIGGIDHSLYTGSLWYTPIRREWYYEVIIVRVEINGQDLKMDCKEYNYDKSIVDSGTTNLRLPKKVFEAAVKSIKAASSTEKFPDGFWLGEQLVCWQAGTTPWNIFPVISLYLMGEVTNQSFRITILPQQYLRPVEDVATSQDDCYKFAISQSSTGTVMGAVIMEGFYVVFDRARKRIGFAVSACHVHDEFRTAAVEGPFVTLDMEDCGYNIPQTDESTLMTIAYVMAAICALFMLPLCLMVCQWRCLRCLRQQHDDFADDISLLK

SMILES: Cc1cncc(-c2ccc3c(c2)[C@@]2(COC(N)=N2)c2cc(OCC(C)(C)C)ccc2O3)c1 [Example 81, (4S)-2′-(2,2-dimethylpropoxy)-7′-(5-methyl-3-pyridinyl)spiro[1,3-oxazole-4,9′-xanthen]-2-amine]
- IC50 (BACE1 [1]; Table II): < 0.1 µM
- IC50 (BACE1 [2]; [3]): < 0.1 µM

SMILES: Cc1noc(C)c1-c1ccc2c(c1)[C@]1(COC(N)=N1)c1cc(OCC(C)(C)C)ccc1O2 [compound 189]
- IC50 (BACE1 [1]; Table III, IC50's in uM ranges): 0.1 to 1 µM
- IC50 (BACE1 [2]; Table III, IC50's in uM ranges): > 5 µM

SMILES: CC(C)(C)CCc1cnc2c(c1)[C@]1(COC(N)=N1)c1cc(-c3cncnc3)ccc1O2 [compound 472]
- IC50 (BACE1 [1]): < 0.1 µM
- IC50 (BACE1 [2]; HEK cells): < 0.1 µM

SMILES: CC(C)(O)COc1ccc2c(c1)[C@]1(COC(N)=N1)c1cc(-c3ccc(F)nc3)ccc1O2 [compound 222]
- IC50 (BACE1 [1]; Table III, IC50's in uM ranges): < 0.1 µM
- IC50 (BACE1 [2]; Table III, IC50's in uM ranges): < 0.1 µM

SMILES: CC(C)(C)COc1ccc2c(c1)[C@]1(COC(N)=N1)c1cc(-c3cc(Cl)ccc3F)cnc1O2 [Example 69, (5R)-3-(5-chloro-2-fluorophenyl)-7-(2,2-dimethylpropoxy)spiro[chromeno[2,3-b]pyridine-5,4′-[1,3]oxazol]-2′-amine]
- IC50 (BACE1 [1]; Table II): < 0.1 µM
- IC50 (BACE1 [2]; [3]): 1 to 5 µM

SMILES: CC1CCN(c2cc3c(cn2)Oc2ccc(-c4cccnc4)cc2[C@@]32COC(N)=N2)CC1 [compound 441]
- IC50 (BACE1 [1]): < 0.1 µM
- IC50 (BACE1 [2]; HEK cells): < 0.1 µM

SMILES: CC(C)C[C@@H]1CN(c2ccc3c(c2)[C@]2(COC(N)=N2)c2cc(-c4cncnc4)ccc2O3)CCO1 [compound 422]
- IC50 (BACE1 [1]): 0.1 to 1 µM
- IC50 (BACE1 [2]; HEK cells): 0.1 to 1 µM

SMILES: CC1(C)CN(c2cc(F)c3c(c2)[C@]2(COC(N)=N2)c2cc(-c4cccnc4)ccc2O3)CCO1 [compound 484]
- IC50 (BACE1 [1]): < 0.1 µM
- IC50 (BACE1 [2]; HEK cells): < 0.1 µM

SMILES: NC1=N[C@]2(CO1)c1cc(C3=CCNCC3)ccc1Oc1ccc(-c3cccnc3)cc12 [compound 810]
- IC50 (BACE1 [1]; Table IV, class symbols): < 0.1 µM
- IC50 (BACE1 [2]; Table IV, class symbols): < 0.1 µM

SMILES: NC1=N[C@@]2(CO1)c1cc(-c3cccc(F)c3)ccc1Oc1cnc(-c3cccc(F)c3)cc12 [compound 366]
- IC50 (BACE1 [1]; [4]): < 0.1 µM
- IC50 (BACE1 [2]; [5]): 0.1 to 1 µM

SMILES: NC1=N[C@]2(CO1)c1cc(C#CCCO)ccc1Oc1ccc(-c3cccnc3)cc12 [compound 183]
- IC50 (BACE1 [1]; Table III, IC50's in uM ranges): < 0.1 µM
- IC50 (BACE1 [2]; Table III, IC50's in uM ranges): < 0.1 µM

SMILES: Cc1ccc(-c2ccc3c(c2)[C@@]2(COC(N)=N2)c2cc(OCC(C)(C)C)ccc2O3)cn1 [Example 80, (4S)-2′-(2,2-dimethylpropoxy)-7′-(6-methyl-3-pyridinyl)spiro[1,3-oxazole-4,9′-xanthen]-2-amine]
- IC50 (BACE1 [1]; Table II): 0.1 to 1 µM
- IC50 (BACE1 [2]; [3]): 1 to 5 µM

SMILES: CC(C)(C)OC(=O)n1cccc1-c1ccc2c(c1)[C@@]1(COC(N)=N1)c1cccc(F)c1O2 [compound 510]
- IC50 (BACE1 [1]): 1 to 5 µM
- IC50 (BACE1 [2]; HEK cells): 1 to 5 µM

SMILES: NC1=N[C@@]2(CO1)c1cc(-c3cccnc3)ccc1Oc1cnc(N3CCC3)cc12 [compound 447]
- IC50 (BACE1 [1]): < 0.1 µM
- IC50 (BACE1 [2]; HEK cells): 0.1 to 1 µM

SMILES: Cc1ccc2c(c1)Oc1ccc(-c3cccc(Cl)c3)cc1C21COC(N)=N1 (stereo not drawn) [Example 25, 2′-(3-chlorophenyl)-6′-methylspiro[1,3-oxazole-4,9′-xanthen]-2-amine]
- IC50 (BACE1 [1]; Table 1): > 5 µM
- IC50 (BACE1 [2]; Table 1, Aβ40, 24 h incubation): 1 to 5 µM

SMILES: CC(C)C[C@@H]1CN(c2ccc3c(c2)[C@]2(COC(N)=N2)c2cc(-c4cccnc4)ccc2O3)CCO1 [compound 360]
- IC50 (BACE1 [1]; [4]): 0.1 to 1 µM
- IC50 (BACE1 [2]; [5]): 0.1 to 1 µM

SMILES: N#Cc1cccc(-c2cc3c(cn2)Oc2ccc(-c4cccnc4F)cc2[C@@]32COC(N)=N2)c1 [compound 373]
- IC50 (BACE1 [1]; [4]): < 0.1 µM
- IC50 (BACE1 [2]; [5]): < 0.1 µM

SMILES: CC(=O)COc1ccc2c(c1)[C@]1(COC(N)=N1)c1cc(C#CC3CC3)ccc1O2 [compound 200]
- IC50 (BACE1 [1]; Table III, IC50's in uM ranges): 0.1 to 1 µM
- IC50 (BACE1 [2]; Table III, IC50's in uM ranges): 0.1 to 1 µM

SMILES: NC1=N[C@]2(CO1)c1cc(OCC3CC3(F)F)ccc1Oc1ccc(-c3cncnc3)cc12 (stereo partly drawn) [Example 62, (4S)-2′-((2,2-difluorocyclopropyl)methoxy)-7′-(5-pyrimidinyl)spiro[1,3-oxazole-4,9′-xanthen]-2-amine]
- IC50 (BACE1 [1]; Table II): < 0.1 µM
- IC50 (BACE1 [2]; [3]): < 0.1 µM

SMILES: CC(C)(F)COc1cnc2c(c1)[C@]1(COC(N)=N1)c1cc(-c3cccnc3)ccc1O2 [compound 450]
- IC50 (BACE1 [1]): < 0.1 µM
- IC50 (BACE1 [2]; HEK cells): < 0.1 µM

SMILES: CC(C)(C)C#Cc1ccc2c(c1)[C@]1(COC(N)=N1)c1cc(-c3ccc(F)nc3)ccc1O2 [147a]
- IC50 (BACE1 [1]; Table III, IC50's in uM ranges): < 0.1 µM
- IC50 (BACE1 [2]; Table III, IC50's in uM ranges): 0.1 to 1 µM

SMILES: NC1=N[C@@]2(CO1)c1cc(-c3cncnc3)ccc1Oc1c(F)cc(OCC3CCOCC3)cc12 [compound 417]
- IC50 (BACE1 [1]; [4]): < 0.1 µM
- IC50 (BACE1 [2]; [5]): < 0.1 µM

Results, then the molecule that gave them:

- IC50 (BACE1 [1]; Table IV, class symbols): < 0.1 µM
- IC50 (BACE1 [2]; Table IV, class symbols): < 0.1 µM
SMILES: CC(C)(C)C#Cc1ccc2c(c1)[C@@]1(COC(N)=N1)c1cc(-c3cccnc3)cnc1O2 [compound 895]

- IC50 (BACE1 [1]): < 0.1 µM
- IC50 (BACE1 [2]): 0.1 to 1 µM
SMILES: CC1(COc2ccc3c(c2)[C@]2(COC(N)=N2)c2cc(-c4ccccc4F)cnc2O3)COC1 [compound 746]

- IC50 (BACE1 [1]; Table IV, class symbols): < 0.1 µM
- IC50 (BACE1 [2]; Table IV, class symbols): < 0.1 µM
SMILES: CC(C)C(C)(O)COc1ccc2c(c1)[C@]1(COC(N)=N1)c1cc(-c3cccnc3)ccc1O2 (stereo partly drawn) [compound 867]

- IC50 (BACE1 [1]; Table IV, class symbols): 1 to 5 µM
- IC50 (BACE1 [2]; Table IV, class symbols): 1 to 5 µM
SMILES: COc1ccc2c(c1)[C@]1(COC(N)=N1)c1cc(NC(=O)c3ccccc3)ccc1O2 [compound 616]

- IC50 (BACE1 [1]): < 0.1 µM
- IC50 (BACE1 [2]; HEK cells): < 0.1 µM
SMILES: NC1=N[C@]2(CO1)c1cc(C3=CCOCC3)ccc1Oc1cc(F)c(-c3cncnc3)cc12 [compound 529]

- IC50 (BACE1 [1]; Table IV, class symbols): < 0.1 µM
- IC50 (BACE1 [2]; Table IV, class symbols): < 0.1 µM
SMILES: CC(C)(C)COc1ccc2c(c1)[C@@]1(COC(N)=N1)c1cc(-c3cccnc3F)cnc1O2 [compound 870]

- IC50 (BACE1 [1]; Table IV, class symbols): < 0.1 µM
- IC50 (BACE1 [2]; Table IV, class symbols): 0.1 to 1 µM
SMILES: NC1=N[C@]2(CO1)c1cc(-c3ccc(C(F)(F)F)cc3)ccc1Oc1ccc(-c3cncnc3)cc12 [compound 811]

- IC50 (BACE1 [1]): 0.1 to 1 µM
- IC50 (BACE1 [2]): 1 to 5 µM
SMILES: N#Cc1ccccc1Oc1ccc2c(c1)[C@]1(COC(N)=N1)c1cc(-c3cccnc3)ccc1O2 [compound 986]

- IC50 (BACE1 [1]; Table IV, class symbols): 0.1 to 1 µM
- IC50 (BACE1 [2]; Table IV, class symbols): 1 to 5 µM
SMILES: NC1=N[C@]2(CO1)c1cc(-c3cccnc3)ccc1Oc1c(F)cc(C3=CCOCC3)cc12 [compound 644]

- IC50 (BACE1 [1]; Table IV, class symbols): > 5 µM
- IC50 (BACE1 [2]; Table IV, class symbols): 1 to 5 µM
SMILES: NC1=N[C@]2(CO1)c1cnccc1Oc1ccc(-c3cccnc3)cc12 [compound 557]

- IC50 (BACE1 [1]): 1 to 5 µM
- IC50 (BACE1 [2]): > 5 µM
SMILES: NC1=NC2(CO1)c1cnc(Cl)cc1Oc1ccc(-c3cccnc3)cc12 (stereo not drawn) [compound 727]

- IC50 (BACE1 [1]): 1 to 5 µM
- IC50 (BACE1 [2]): > 5 µM
SMILES: CC(C)(C)COc1cc2c(cc1F)[C@]1(COC(N)=N1)c1cc(-c3cncnc3)ccc1O2 [compound 999]

- IC50 (BACE1 [1]; Table IV, class symbols): 0.1 to 1 µM
- IC50 (BACE1 [2]; Table IV, class symbols): 1 to 5 µM
SMILES: COc1ccc2c(c1)[C@]1(COC(N)=N1)c1cc(-c3cncc4ccccc34)ccc1O2 [compound 634]

- IC50 (BACE1 [1]; Table IV, class symbols): < 0.1 µM
- IC50 (BACE1 [2]; Table IV, class symbols): 1 to 5 µM
SMILES: CC(C)(C)COc1ccc2c(c1)[C@]1(COC(N)=N1)c1cc(-c3ccsc3)ccc1O2 [compound 833]

- IC50 (BACE1 [1]): 0.1 to 1 µM
- IC50 (BACE1 [2]): 1 to 5 µM
SMILES: CC(C)(C)OC(=O)/C=C/c1ccc2c(c1)[C@]1(COC(N)=N1)c1cc(-c3cncnc3)ccc1O2 [compound 994]

- IC50 (BACE1 [1]; Table IV, class symbols): 0.1 to 1 µM
- IC50 (BACE1 [2]; Table IV, class symbols): 0.1 to 1 µM
SMILES: NC1=N[C@@]2(CO1)c1cnccc1Oc1ccc(-c3cccnc3)cc12 [compound 556]

- IC50 (BACE1 [1]): 0.1 to 1 µM
- IC50 (BACE1 [2]): 1 to 5 µM
SMILES: NC1=N[C@]2(CO1)c1cc(Br)ccc1Oc1ccc(-c3cccnc3)cc12 [compound 960]

- IC50 (BACE1 [1]; Table IV, class symbols): > 5 µM
- IC50 (BACE1 [2]; Table IV, class symbols): > 5 µM
SMILES: NC1=N[C@@]2(CO1)c1ccccc1Oc1ccc(-c3cnc4ccccc4c3)cc12 [compound 628]

- IC50 (BACE1 [1]): 0.1 to 1 µM
- IC50 (BACE1 [2]): 0.1 to 1 µM
SMILES: CC(=O)COc1ccc2c(c1)[C@@]1(COC(N)=N1)c1cc(-c3cccnc3)cnc1O2 [compound 926]

- IC50 (BACE1 [1]; Table IV, class symbols): < 0.1 µM
- IC50 (BACE1 [2]; Table IV, class symbols): < 0.1 µM
SMILES: CC(=O)c1ccc(-c2ccc3c(c2)[C@]2(COC(N)=N2)c2cc(-c4cncnc4)ccc2O3)cc1 [compound 888]

Source: patent US8426447B2, “Spiro-tricyclic ring compounds as beta-secretase modulators and methods of use” (Amgen Inc., priority 2008, dated 2013)
